BigSolDB 2.1

Compound `Nc1ccc(Oc2ccc(N)cc2)cc1` has a solubility (mole fraction) (in 2-ethoxyethanol, 283.15 K) of 0.0274, a solubility (mole fraction) (in 2-ethoxyethanol, 288.15 K) of 0.0288 and a solubility (mole fraction) (in 2-ethoxyethanol, 293.15 K) of 0.0306. For the same compound, the solubility (mole fraction) (in 2-ethoxyethanol, 298.15 K) was 0.0329, the solubility (mole fraction) (in 2-ethoxyethanol, 303.15 K) was 0.0358 and the solubility (mole fraction) (in 2-ethoxyethanol, 308.15 K) was 0.0394. For the same compound, the solubility (mole fraction) (in 2-ethoxyethanol, 313.15 K) was 0.0436, the solubility (mole fraction) (in 2-ethoxyethanol, 318.15 K) was 0.0486 and the solubility (mole fraction) (in 2-ethoxyethanol, 323.15 K) was 0.0544. The solubility (mole fraction) (in DMAc, 283.15 K) was 0.133, the solubility (mole fraction) (in DMAc, 288.15 K) was 0.136 and the solubility (mole fraction) (in DMAc, 293.15 K) was 0.139. For the same compound, the solubility (mole fraction) (in DMAc, 298.15 K) was 0.143, the solubility (mole fraction) (in DMAc, 303.15 K) was 0.147 and the solubility (mole fraction) (in DMAc, 308.15 K) was 0.152. It also gave a solubility (mole fraction) (in DMAc, 313.15 K) of 0.156, a solubility (mole fraction) (in DMAc, 318.15 K) of 0.162 and a solubility (mole fraction) (in DMAc, 323.15 K) of 0.168. It also gave a solubility (mole fraction) (in DMF, 283.15 K) of 0.104, a solubility (mole fraction) (in DMF, 288.15 K) of 0.107 and a solubility (mole fraction) (in DMF, 293.15 K) of 0.11. For the same compound, the solubility (mole fraction) (in DMF, 298.15 K) was 0.115, the solubility (mole fraction) (in DMF, 303.15 K) was 0.12 and the solubility (mole fraction) (in DMF, 308.15 K) was 0.126. It also gave a solubility (mole fraction) (in DMF, 313.15 K) of 0.132, a solubility (mole fraction) (in DMF, 318.15 K) of 0.138 and a solubility (mole fraction) (in DMF, 323.15 K) of 0.145. The solubility (mole fraction) (in DMSO, 298.15 K) was 0.153, the solubility (mole fraction) (in DMSO, 303.15 K) was 0.159 and the solubility (mole fraction) (in DMSO, 308.15 K) was 0.165. It also gave a solubility (mole fraction) (in DMSO, 313.15 K) of 0.172, a solubility (mole fraction) (in DMSO, 318.15 K) of 0.179 and a solubility (mole fraction) (in DMSO, 323.15 K) of 0.187. It also gave a solubility (mole fraction) (in ethanol, 283.15 K) of 0.000434, a solubility (mole fraction) (in ethanol, 288.15 K) of 0.000549 and a solubility (mole fraction) (in ethanol, 293.15 K) of 0.0007. It also gave a solubility (mole fraction) (in ethanol, 298.15 K) of 0.00089, a solubility (mole fraction) (in ethanol, 303.15 K) of 0.00113 and a solubility (mole fraction) (in ethanol, 308.15 K) of 0.00143. The solubility (mole fraction) (in ethanol, 313.15 K) was 0.00176, the solubility (mole fraction) (in ethanol, 318.15 K) was 0.00217 and the solubility (mole fraction) (in ethanol, 323.15 K) was 0.0027. For the same compound, the solubility (mole fraction) (in methanol, 283.15 K) was 0.00114, the solubility (mole fraction) (in methanol, 288.15 K) was 0.00132 and the solubility (mole fraction) (in methanol, 293.15 K) was 0.00153. It also gave a solubility (mole fraction) (in methanol, 298.15 K) of 0.00178, a solubility (mole fraction) (in methanol, 303.15 K) of 0.00208 and a solubility (mole fraction) (in methanol, 308.15 K) of 0.00246. It also gave a solubility (mole fraction) (in methanol, 313.15 K) of 0.00293, a solubility (mole fraction) (in methanol, 318.15 K) of 0.00349 and a solubility (mole fraction) (in methanol, 323.15 K) of 0.00416.
